In ChEMBL document CHEMBL5512601, “Small-molecule inhibitors targeting apoptosis signal-regulated kinase 1” (Eur J Med Chem, 2023):
Each block holds one compound with its values, some of them ahead of it.

Columns and labels:
[1] = target: T1, Mitogen-activated protein kinase kinase kinase 5 (Homo sapiens, UniProt Q99683); assay: Inhibition of full length GST-tagged recombinant human ASK1 using MBP as substrate incubated for 20 mins by cell based assay
T1 sequence (Q99683 whole entry): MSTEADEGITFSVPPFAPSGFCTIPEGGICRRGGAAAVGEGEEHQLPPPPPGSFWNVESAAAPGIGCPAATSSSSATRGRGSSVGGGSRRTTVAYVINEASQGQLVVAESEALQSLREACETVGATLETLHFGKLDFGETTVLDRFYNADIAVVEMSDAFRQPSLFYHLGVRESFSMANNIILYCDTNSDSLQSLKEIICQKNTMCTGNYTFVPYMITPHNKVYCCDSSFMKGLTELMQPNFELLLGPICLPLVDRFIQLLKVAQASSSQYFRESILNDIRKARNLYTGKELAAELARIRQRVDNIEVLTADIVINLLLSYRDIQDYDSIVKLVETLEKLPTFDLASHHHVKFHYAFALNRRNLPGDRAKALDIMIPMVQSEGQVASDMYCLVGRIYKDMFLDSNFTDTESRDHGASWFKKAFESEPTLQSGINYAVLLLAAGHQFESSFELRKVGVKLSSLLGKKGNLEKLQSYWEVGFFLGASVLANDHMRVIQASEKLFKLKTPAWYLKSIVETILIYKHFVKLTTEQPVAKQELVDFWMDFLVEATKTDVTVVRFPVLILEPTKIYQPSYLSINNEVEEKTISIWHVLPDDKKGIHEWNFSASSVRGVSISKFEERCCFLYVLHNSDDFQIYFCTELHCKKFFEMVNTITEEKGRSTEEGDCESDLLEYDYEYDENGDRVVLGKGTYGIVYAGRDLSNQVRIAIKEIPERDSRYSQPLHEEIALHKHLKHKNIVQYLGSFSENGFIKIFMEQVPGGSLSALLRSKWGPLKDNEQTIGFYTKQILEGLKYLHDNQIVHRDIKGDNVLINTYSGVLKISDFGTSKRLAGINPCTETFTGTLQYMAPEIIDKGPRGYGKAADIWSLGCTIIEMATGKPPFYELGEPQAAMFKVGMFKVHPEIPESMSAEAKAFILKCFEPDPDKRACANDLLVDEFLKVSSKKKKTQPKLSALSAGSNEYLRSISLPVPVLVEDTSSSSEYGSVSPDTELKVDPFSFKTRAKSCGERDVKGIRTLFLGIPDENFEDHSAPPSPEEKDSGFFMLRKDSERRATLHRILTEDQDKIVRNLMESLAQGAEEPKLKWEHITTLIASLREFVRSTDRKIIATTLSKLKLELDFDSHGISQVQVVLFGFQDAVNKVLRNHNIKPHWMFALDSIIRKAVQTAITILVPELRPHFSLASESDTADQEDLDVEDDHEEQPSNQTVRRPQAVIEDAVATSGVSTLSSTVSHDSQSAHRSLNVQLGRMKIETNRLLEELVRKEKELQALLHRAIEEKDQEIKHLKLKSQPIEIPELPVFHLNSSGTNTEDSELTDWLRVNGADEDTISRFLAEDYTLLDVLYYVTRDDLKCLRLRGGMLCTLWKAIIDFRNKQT

[2] = target: T1, Mitogen-activated protein kinase kinase kinase 5; assay: Inhibition of full length GST-tagged recombinant human ASK1 using MBP as substrate incubated for 20 mins
[3] = Apparent permeability of compound across apical to basolateral side in human Caco2 cells; assay type: ADME, cell-based; conditions: Caco-2
[4] = Efflux ratio of apparent permeability across basolateral to apical side over apical to basolateral side in human Caco2 cells by LC-MS/MS analysis; assay type: ADME, cell-based; conditions: Caco-2
[5] = target: T1, Mitogen-activated protein kinase kinase kinase 5; assay: Inhibition of ASK1 in HEK293 cells; assay type: cell-based
[6] = Half life in Sprague-Dawley rat at 1 mg/kg, iv by LC-MS/MS analysis; assay type: ADME, organism-based; conditions: in vivo
[7] = Oral bioavailability in Sprague-Dawley rat at 1 mg/kg by LC-MS/MS analysis; assay type: ADME, organism-based; conditions: in vivo
Rattus norvegicus [8] = species: Rattus norvegicus; assay: Antifibrotic activity CDHFD-NaNO2 rat model; assay type: functional
Rattus norvegicus [9] = species: Rattus norvegicus; assay: Antifibrotic activity CDHFD-NaNO2 rat model assessed as effect on hydroxyproline level; assay type: functional
[10] = Unbound brain-to-plasma concentration ratio in rat at 1 mg/kg, iv by LC-MS/MS analysis; assay type: ADME, organism-based; conditions: brain and plasma, read-out: K(p,uu,brain)
[11] = target: T1, Mitogen-activated protein kinase kinase kinase 5; assay: Inhibition of ASK1 phosphorylation in HEK293T cells incubated for 1 hr; assay type: cell-based
[12] = target: T1, Mitogen-activated protein kinase kinase kinase 5; assay: Inhibition of ASK1 (unknown origin) incubated for 2 hrs

IC50 [1]: > 100 nM
IC50 [2]: > 1000 nM
SMILES: Cc1cc(F)c(C(=O)Nc2cccc(-c3nnc4n3CCCC4)n2)cc1-n1nnc(C2CC2)n1

Papp A→B [3]: 0.26 ×10⁻⁶ cm/s
efflux ratio [4]: 15.4
EC50 [5]: 18 nM
half-life [6]: 1.2 h
bioavailability [7]: 50%
SMILES: Cc1ccc(C(=O)Nc2cccc(-c3nncn3C(C)C)n2)cc1-n1cnc(C2CC2)c1

bioavailability [7]: 75%
SMILES: Cc1cc(F)c(C(=O)Nc2cccc(-c3nncn3C(C)C)n2)cc1-n1cnc(C2CC2)c1 [SELONSERTIB]
Activity (Rattus norvegicus [8]): 28%
Activity (Rattus norvegicus [9]): 6%

Kp uu [10]: ≥ 0.1
IC50 [11]: ≤ 1000 nM
IC50 [12]: < 100 nM
SMILES: C[C@H]1CCCOc2ncccc2C(=O)Nc2cccc(n2)-c2nncn21
